Test results reported in the supplement of paper PMC12137928.
Counter-ions that a name gives are not always drawn.

System: HCT116
Conditions: 72 h
Summary of the method: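 In 1536-well plates, 250 HCT116 cells per well were seeded and left for 5 h to attach. Luminescence from CellTiter-Glo was set against vehicle (0%) and positive control (-100%), and pattern correction was applied. IC50 and maximal efficacy come from four-parameter Hill fitting.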

| SMILES | IC50 cell viability (ICRF193 0 nM) | IC50 cell viability (ICRF193 200 nM) |
| --- | --- | --- |
| CC(C)NC[C@@H](O)COc1cccc2ccccc12 [Dexpropranolol] | > 45.8 µM | > 45.8 µM |
| C[C@@H](CN1CC(=O)NC(=O)C1)N1CC(=O)NC(=O)C1 [Dexrazoxane hydrochloride] | > 45.8 µM | > 45.8 µM |
| OC[C@H]1OC(O)[C@H](O)[C@@H](O)[C@@H]1O (some centres undefined) [Dextrose] | > 45.8 µM | > 45.8 µM |
| CCN(CC)CCOc1ccc2nc(N(C)C)sc2c1 [Diamthazole] | > 45.8 µM | > 45.8 µM |
| CC(=O)Nc1c(I)c(NC(C)=O)c(I)c(C(=O)O)c1I [Diatrizoic acid dihydrate] | > 45.8 µM | > 45.8 µM |
| CC1=Nc2ccc(Cl)cc2S(=O)(=O)N1 [Diazoxide] | > 45.8 µM | > 45.8 µM |
| CN(C)CCN1C(=O)c2ccccc2N(C)c2ccccc21 [Dibenzepin hydrochloride] | > 45.8 µM | > 45.8 µM |
| c1ccc2c(c1)sc1ccccc12 [Dibenzothiophene] | > 45.8 µM | > 45.8 µM |
| O[C@@H]([C@H](O)[C@H](O)CBr)[C@H](O)CBr [Dibromomannitol] | > 45.8 µM | > 45.8 µM |
| CCCCOc1cc(C(=O)NCCN(CC)CC)c2ccccc2n1 [Dibucaine] | > 45.8 µM | > 45.8 µM |
| CCCCCCCCCCCC(=O)[O][Sn]([CH2]CCC)([CH2]CCC)[O]C(=O)CCCCCCCCCCC [Dibutyltin dilaurate] | > 45.8 µM | > 45.8 µM |
| CCOC(=O)OCC/C(SC(=O)OCC)=C(\C)N(C=O)Cc1cnc(C)nc1N [Dicethiamine hydrochloride] | > 45.8 µM | > 45.8 µM |
| NCCN.[Cl][Pt][Cl] [Dichloro(ethylenediamine)platinum(II)] | > 45.8 µM | > 45.8 µM |
| COP(=O)(OC)OC=C(Cl)Cl [Dichlorvos] | > 45.8 µM | > 45.8 µM |
| O=C(O)Cc1ccccc1Nc1c(Cl)cccc1Cl [Diclofenac sodium] | > 45.8 µM | > 45.8 µM |
| NS(=O)(=O)c1cc(Cl)c(Cl)c(S(N)(=O)=O)c1 [Diclofenamide] | > 45.8 µM | > 45.8 µM |
| Cc1onc(-c2c(Cl)cccc2Cl)c1C(=O)N[C@@H]1C(=O)N2[C@@H]1SC(C)(C)[C@@H]2C(=O)O [Dicloxacillin sodium salt monohydrate] | > 45.8 µM | > 45.8 µM |
| O=c1oc2ccccc2c(O)c1Cc1c(O)c2ccccc2oc1=O [Dicumarol] | > 45.8 µM | > 45.8 µM |
| C1CCC(NC2CCCCC2)CC1 [Dicyclohexylamine] | > 45.8 µM | > 45.8 µM |
| CCN(CC)CCOC(=O)C1(C2CCCCC2)CCCCC1 [Dicyclomine] | > 45.8 µM | > 45.8 µM |
| S=C(SSC(=S)N1CCCCC1)N1CCCCC1 [Dicyclopentamethylenethiuram disulfide] | > 45.8 µM | > 45.8 µM |

| SMILES | IC50 cell viability (ICRF193 0 nM) | IC50 cell viability (ICRF193 200 nM) |
| --- | --- | --- |
| C[C@]12CCC3=C4CCC(=O)C=C4CC[C@H]3[C@@H]1CC[C@@]2(O)CC#N [Dienogest] | > 45.8 µM | > 45.8 µM |
| CCOC(=O)c1ccccc1C(=O)OCC [Diethyl phthalate] | > 45.8 µM | > 45.8 µM |
| CC(=O)OCC(=O)[C@@]1(OC(C)=O)[C@@H](C)C[C@H]2[C@@H]3C[C@H](F)C4=CC(=O)C=C[C@]4(C)[C@@]3(F)[C@@H](O)C[C@@]21C [Diflorasone diacetate] | > 45.8 µM | > 45.8 µM |
| CN1CCN(c2cc3c(cc2F)c(=O)c(C(=O)O)cn3-c2ccc(F)cc2)CC1 [Difloxacin hydrochloride] | > 45.8 µM | > 45.8 µM |
| O=C(O)c1cc(-c2ccc(F)cc2F)ccc1O [Diflunisal] | > 45.8 µM | > 45.8 µM |
| CCCC(=O)O[C@]1(C(=O)COC(C)=O)CC[C@H]2[C@@H]3C[C@H](F)C4=CC(=O)C=C[C@]4(C)[C@@]3(F)[C@@H](O)C[C@@]21C [Difluprednate] | > 45.8 µM | > 45.8 µM |
| CC(C)C[C@H]1C(=O)N2CCC[C@H]2[C@]2(O)O[C@](NC(=O)[C@@H]3C[C@@H]4c5cccc6[nH]cc(c56)C[C@H]4N(C)C3)(C(C)C)C(=O)N12 [Dihydroergocriptine] | > 45.8 µM | > 45.8 µM |
| CN1C[C@H](C(=O)N[C@]2(C)O[C@@]3(O)[C@@H]4CCCN4C(=O)[C@H](Cc4ccccc4)N3C2=O)C[C@@H]2c3cccc4[nH]cc(c34)C[C@H]21 [Dihydroergotamine] | > 45.8 µM | > 45.8 µM |
| CC(C)[C@@H](C)/C=C/[C@@H](C)[C@H]1CC[C@H]2/C(=C/C=C3\C[C@@H](O)CC[C@@H]3C)CCC[C@]12C [Dihydrotachysterol] | > 45.8 µM | > 45.8 µM |
| CC(C)NC(C)C [Diisopropylamine] | > 45.8 µM | > 45.8 µM |
| CN(C(=O)C(Cl)Cl)c1ccc(OC(=O)c2ccco2)cc1 [Diloxanide furoate] | > 45.8 µM | > 45.8 µM |
| COc1ccc([C@@H]2Sc3ccccc3N(CCN(C)C)C(=O)[C@@H]2OC(C)=O)cc1 [Diltiazem] | > 45.8 µM | > 45.8 µM |
| COc1ccc2c(=O)c(C)c(-c3ccccc3)oc2c1CN(C)C [Dimefline hydrochloride] | > 45.8 µM | > 45.8 µM |
| Cc1ccc2c(c1)[C@]13CCCC[C@@H]1[C@H](C2)N(C)CC3 [Dimemorfan phosphate] | > 45.8 µM | > 45.8 µM |
| CCCCc1cc2ccccc2c(OCCN(C)C)n1 [Dimethisoquin hydrochloride] | > 45.8 µM | > 45.8 µM |
| CC#C[C@]1(O)CC[C@H]2[C@@H]3C[C@H](C)C4=CC(=O)CC[C@]4(C)[C@H]3CC[C@@]21C [Dimethisteron] | > 45.8 µM | > 45.8 µM |
| COC(=O)/C=C\C(=O)OC [Dimethyl maleate] | > 45.8 µM | > 45.8 µM |
| C[N+](C)(CCOc1ccccc1)Cc1cccs1 [Dimethyl(2-phenoxyethyl)-2-thenylammonium iodide] | > 45.8 µM | > 45.8 µM |
| CCCCN(CCN(CCCC)C(=O)N1CCOCC1)C(=O)N1CCOCC1 [Dimorpholamine] | > 45.8 µM | > 45.8 µM |
| O=C(Nc1ccccc1)OCC(CN1CCCCC1)OC(=O)Nc1ccccc1 (centres undefined) [Diperodon hydrochloride] | > 45.8 µM | > 45.8 µM |
| C[N+]1(C)CCC(=C(c2ccccc2)c2ccccc2)CC1 [Diphemanil methylsulfate] | > 45.8 µM | > 45.8 µM |

| SMILES | IC50 cell viability (ICRF193 0 nM) | IC50 cell viability (ICRF193 200 nM) |
| --- | --- | --- |
| OC(CCCN1CCCCC1)(c1ccccc1)c1ccccc1 [Diphenidol] | > 45.8 µM | > 45.8 µM |
| CN1CCC(OC(c2ccccc2)c2ccccc2)CC1 [Diphenylpyraline hydrochloride] | > 45.8 µM | > 45.8 µM |
| CNCC(O)c1ccc(OC(=O)C(C)(C)C)c(OC(=O)C(C)(C)C)c1 (centres undefined) [Dipivefrin hydrochloride] | > 45.8 µM | > 45.8 µM |
| CC[N+](CC)(CC)CCOC(=O)C(C1CCCC1)C1CCCC1 [Diponium bromide] | > 45.8 µM | > 45.8 µM |
| OCCN(CCO)c1nc(N2CCCCC2)c2nc(N(CCO)CCO)nc(N3CCCCC3)c2n1 [Dipyridamole] | > 45.8 µM | > 45.8 µM |
| Cc1c(N(C)CS(=O)(=O)O)c(=O)n(-c2ccccc2)n1C [Dipyrone] | > 45.8 µM | > 45.8 µM |
| CC[C@H]1OC(=O)[C@H](C)[C@@H](O[C@H]2C[C@@](C)(OC)[C@@H](O)[C@H](C)O2)[C@H](C)[C@@H](O[C@@H]2O[C@H](C)C[C@H](N(C)C)[C@H]2O)[C@](C)(O)C[C@@H](C)[C@@H]2N[C@@H](COCCOC)O[C@H]([C@H]2C)[C@]1(C)O [Dirithromycin] | > 45.8 µM | > 45.8 µM |
| O=C([O-])CC(O)C(=O)[O-].[Na+].[Na+] (centres undefined) [Disodium 2-hydroxybutanedioate] | > 45.8 µM | > 45.8 µM |
| CC(C)N(CCC(C(N)=O)(c1ccccc1)c1ccccn1)C(C)C (centres undefined) [Disopyramide] | > 45.8 µM | > 45.8 µM |
| CN(CCCCCCN(C)C(=O)Oc1ccc[n+](C)c1)C(=O)Oc1ccc[n+](C)c1 [Distigmine Bromide] | > 45.8 µM | > 45.8 µM |
| CCN(CC)C(=S)SSC(=S)N(CC)CC [Disulfiram] | > 45.8 µM | > 45.8 µM |
| O=S(=O)(O)c1cc(O)ccc1O [Dobesilate Calcium] | > 45.8 µM | > 45.8 µM |
| CCOC(=O)Oc1ccc(CCNC(=O)[C@H](CCSC)NC(C)=O)cc1OC(=O)OCC [Docarpamine] | > 45.8 µM | > 45.8 µM |
| CCCCCCCCCCCCCCCCCCCCCCO [Docosanol] | > 45.8 µM | > 45.8 µM |
| CN(CCOc1ccc(NS(C)(=O)=O)cc1)CCc1ccc(NS(C)(=O)=O)cc1 [Dofetilide] | > 45.8 µM | > 45.8 µM |
| O=C(O[C@@H]1C[C@@H]2C[C@H]3C[C@H](C1)N2CC3=O)c1c[nH]c2ccccc12 [Dolasetron mesylate hydrate] | > 45.8 µM | > 45.8 µM |
| O=c1[nH]c2ccccc2n1CCCN1CCC(n2c(=O)[nH]c3cc(Cl)ccc32)CC1 [Domperidone] | > 45.8 µM | > 45.8 µM |
| COc1cc2c(cc1OC)C(=O)C(CC1CCN(Cc3ccccc3)CC1)C2 (centres undefined) [Donepezil hydrochloride] | > 45.8 µM | > 45.8 µM |
| NCCc1ccc(O)c(O)c1 [Dopamine hydrochloride] | > 45.8 µM | > 45.8 µM |
| O=[N+]([O-])c1nccn1COC(CO)C(O)CO (centres undefined) [Doranidazole] | > 45.8 µM | > 45.8 µM |
